{"source": "patent US20100151020A1", "about": "“DRUG […] SYSTEM FOR ZERO ORDER, ZERO ORDER BIPHASIC, ASCENDING OR […] […] OF METHYLPHENIDATE” (priority 2008, published 2010)", "origin": "cited, not measured here", "key": {"[1]": {"conditions": "reports"}, "[2]": {"conditions": "chronic methylphenidate dosing"}}, "note": "Where a name gives a salt, the structure may show the parent alone. Read-outs that look alike come from different tables or passages of the source.", "data": [{"compound": "COC(=O)C(c1ccccc1)C1CCCCN1", "note": "(stereo not shown) [methylphenidate HCl]", "values": [{"measurement": "AD/HD patients responding positively", "setting": "[1]", "value": "70-90%"}, {"measurement": "drug excreted", "setting": "adults", "value": 80, "unit": "%"}, {"measurement": "drug excreted", "setting": "children", "value": 67, "unit": "%"}, {"measurement": "time to peak", "setting": "children, immediate release", "value": 1.9, "unit": "h"}, {"measurement": "time to peak, range", "setting": "children, immediate release", "value": "0.3 to 4.4", "unit": "h"}, {"measurement": "pharmacokinetic half-life", "setting": "immediate release", "value": "2 to 3", "unit": "h"}, {"measurement": "primary adverse events", "setting": "[2]", "value": "nervousness, insomnia, and appetite suppression"}]}]}
